In US10435412B2, “Selective modulators of the activity of the GPR55 receptor: chromenopyrazole derivatives” (Consejo Superior de Investigaciones Cientificas (CSIC), priority 2015, dated 2019):

How the values were obtained:
[1] = biological target: T1, GPR55 receptor (Homo sapiens, UniProt Q9Y2T6); assay: GPR55 agonist activity, real-time cell impedance (xCELLigence) in hGPR55-HEK293 cells; format: cell-based; details: mean (95% confidence interval); for Emax: read-out: Emax (%), agonist action on GPR55
T1 construct: expressed in transfected cells
T1 sequence (Q9Y2T6 whole entry): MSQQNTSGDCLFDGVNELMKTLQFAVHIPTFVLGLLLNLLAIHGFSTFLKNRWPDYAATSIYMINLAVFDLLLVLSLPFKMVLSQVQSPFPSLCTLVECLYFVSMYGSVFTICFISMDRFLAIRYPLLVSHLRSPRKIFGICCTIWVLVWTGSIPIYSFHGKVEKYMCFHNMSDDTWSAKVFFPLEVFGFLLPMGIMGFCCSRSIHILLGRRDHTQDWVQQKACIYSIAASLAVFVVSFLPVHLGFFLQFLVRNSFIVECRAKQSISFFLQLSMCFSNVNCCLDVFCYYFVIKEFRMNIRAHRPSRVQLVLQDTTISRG
Protocol: (§1) In the present invention, the activity of the compounds of the invention on the GPR55 receptor was assessed by performing in vitro assays with real-time cell impedance measurements (xCELLigence experiments). These assays were performed on a HEK293 human embryonic kidney cell line overexpressing the recombinant GPR55 receptor in stable form (hGPR55-HEK293). The cells were seeded one day prior to carrying out the stimulation with the exemplary compounds of the present invention.
Activation of the GPR55 receptor by an agonist compound causes a cellular impedance detected by the system and compared to lysophosphatidylinositol (LPI), a reference GPR55 ligand. The effect of LPI measured at a concentration of 1 μM was set at 100%. […] Therefore, dose-response curves were determined at this time. Cell impedance values were normalized for each well, just prior to addition of the inventive compound of the invention to be evaluated.

[2] = biological target: T1, GPR55 receptor; assay: GPR55 antagonist activity: inhibition of LPI-mediated GPR55 stimulation (xCELLigence) in hGPR55-HEK293 cells; format: cell-based; details: LPI alone or with example compound at 1 μM, mean (95% confidence interval)
Protocol: as §1
The ability of the exemplary compounds of the patent to inhibit LPI-mediated GPR55 receptor stimulation has been evaluated.
Values represent the mean with a 95% confidence interval calculated with 4 independent experiments performed in duplicate. Significant differences with respect to LPI values are considered due to lack of overlap of confidence intervals.

[3] = maximum effect relative to LPI 1 μM = 100%

| Molecule | Emax [1, 3] [%] | melting point [°C] | other results |
| --- | --- | --- | --- |
| COc1ccc2c(c1)OC(C)(C)c1cn(CNC(=O)CN3CCN(c4ccccc4OC)CC3)nc1-2 [Example 14, 2-(2-(4-(2-methoxyphenyl)piperazinyl)acetamidomethyl)-2,4-dihydro-7-methoxy-4,4-dimethylchromeno[4,3-c]pyrazole] | 51 | – | – |
| COc1ccc2c(c1)OC(C)(C)c1cn(CCN3CCN(C(=O)c4cccs4)CC3)nc1-2 [Example 6, 2-(2-(4-(2-thienoyl)piperazinyl)ethyl)-2,4-dihydro-7-methoxy-4,4-dimethylchromeno[4,3-c]pyrazole] | 45 | 163 to 165 | – |
| COc1ccc2c(c1)OC(C)(C)c1cn(CCN3CCN(C(=O)c4ccccc4)CC3)nc1-2 [Example 4, 2-(2-(4-benzoyl-piperazinyl)ethyl)-2,4-dihydro-7-methoxy-4,4-dimethylchromeno[4,3-c]pyrazole] | 51 | – | – |
| COc1ccc2c(c1)OC(C)(C)c1cn(CCN3CCN(C(=O)C(C)(C)C)CC3)nc1-2 [Example 10, 2-(2-(4-pivaloyl-piperazinyl)ethyl)-2,4-dihydro-7-methoxy-4,4-dimethylchromeno[4,3-c]pyrazole] | 49 | – | – |
| COc1ccc2c(c1)OC(C)(C)c1cn(CCN3CCN(C(=O)c4ccco4)CC3)nc1-2 [Example 2, 2-(2-(4-(2-furoyl)piperazinyl)ethyl)-2,4-dihydro-7-methoxy-4,4-dimethylchromeno[4,3-c]pyrazole] | 43 | – | – |
| lysophosphatidylinositol [LPI, reference compound] | – | – | EC50 ([1]; hGPR55-HEK293 cells, xCELLigence, 5 minutes after addition, 4 experiments, read-out: EC50 (nM), agonist action on GPR55): 2.82 nM; Emax (%), agonist action on GPR55 [1, 3]: 100 (81-118) %; EC50 ([2]; hGPR55-HEK293 cells, read-out: EC50 (nM) of LPI in the presence of example compound): 1.6 nM; Emax (%) of LPI in the presence of example compound ([2]; relative to LPI activity): 99 (90-108) % |
| COc1ccc2c(c1)OC(C)(C)c1cn(CCN3CCN(C(=O)C4CCCO4)CC3)nc1-2 (stereo not shown) [Example 8, 2-(2-(4-(2-tetrahydrofuroyl)piperazinyl)ethyl)-2,4-dihydro-7-methoxy-4,4-dimethylchromeno[4,3-c]pyrazole] | 51 | 158 to 160 | – |
| COc1ccc2c(c1)OC(C)(C)c1cn(CCN3CCN(C(=O)C4CCCCC4)CC3)nc1-2 [Example 9, 2-(2-(4-cyclohexylcarbonyl-piperazinyl)ethyl)-2,4-dihydro-7-methoxy-4,4-dimethylchromeno[4,3-c]pyrazole] | 47 | 151 to 152 | – |
| COc1ccc2c(c1)OC(C)(C)c1cn(CCN3CCN(C(=O)COc4ccccc4)CC3)nc1-2 [Example 7, 2-(2-(4-phenoxyacetylpiperazinyl)ethyl)-2,4-dihydro-7-methoxy-4,4-dimethylchromeno[4,3-c]pyrazole] | 52 | 177 to 179 | – |
